{"source": "ChEMBL document CHEMBL3867484", "about": "“3D-QSAR studies of 3-(3,4-dihydroisoquinolin-2(1H)-ylsulfonyl)benzoic acids as AKR1C3 inhibitors: Highlight the importance of molecular docking in conformation generation” (Bioorg Med Chem Lett, 2016)", "note": "pIC50: −log10 of the molar value."}
{"biological_target": "T1, Aldo-keto reductase family 1 member C3 (Homo sapiens, UniProt P42330)", "T1 sequence (P42330 whole entry)": "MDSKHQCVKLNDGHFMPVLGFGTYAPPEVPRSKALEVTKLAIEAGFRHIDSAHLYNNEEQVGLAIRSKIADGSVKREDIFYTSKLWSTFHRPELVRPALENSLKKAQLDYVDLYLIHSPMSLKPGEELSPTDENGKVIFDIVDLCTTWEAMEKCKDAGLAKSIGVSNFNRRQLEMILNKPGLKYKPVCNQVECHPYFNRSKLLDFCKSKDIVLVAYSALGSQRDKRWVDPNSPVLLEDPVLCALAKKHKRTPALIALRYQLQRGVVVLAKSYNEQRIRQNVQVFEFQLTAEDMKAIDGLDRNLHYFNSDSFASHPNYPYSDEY", "test": "(§1) Inhibition of human recombinant His-tagged AKR1C3 expressed in Escherichia coli BL21 (DE3) cells using 8-Acetyl-2,3,5,6-tetrahydro-1H,4H-11-oxa-3a-aza-benzo[de]anthracen-10-one as substrate after 1 hr in presence of NADPH by fluorescence assay", "conditions": "read-out: IC50"}
{"smiles": "O=C(O)c1cccc(S(=O)(=O)C2CC=CCC2)c1", "note": "(stereo not drawn)", "pIC50": 6.41}
{"smiles": "O=C(NN1CCOCC1)c1cccc(S(=O)(=O)N2CCc3ccccc3C2)c1", "pIC50": 7.11}
{"smiles": "O=C(O)c1cccc(S(=O)(=O)N2CCc3ccc(C#Cc4ccc(C(F)(F)F)cc4)cc3C2)c1", "pIC50": 5.88}
{"smiles": "O=C(O)c1cccc(S(=O)(=O)C2CCc3sccc3C2)c1", "note": "(stereo not drawn)", "pIC50": 7.60}
{"smiles": "CN1CC(c2ccc(S(=O)(=O)N3CCc4ccccc4C3)cc2)CC1=O", "note": "(stereo not drawn)", "pIC50": 7.38}
{"smiles": "O=C(NN1CCSCC1)c1cccc(S(=O)(=O)N2CCc3ccccc3C2)c1", "pIC50": 6.35}
{"biological_target": "T1, Aldo-keto reductase family 1 member C3", "test": "as §1", "conditions": "read-out: pIC50 (converted)", "units": {"IC50": "nM"}}
{"smiles": "O=C(O)[C@@H]1CCCN(S(=O)(=O)c2ccc3ccccc3c2)C1", "IC50": 31.6}
{"smiles": "O=C(O)c1cccc(S(=O)(=O)N2CCc3cc(Br)ccc3C2)c1", "IC50": 6.03}
